Test results published in PubChem BioAssay AID248 (DTP/NCI, 2004).
Values joined by “and” are separate entries in the source; they are usually repeats but may differ in a detail not shown here. Equal values may be shown once. Inconclusive results and toxic doses are left out.

Tested on: L1210 leukemia ip in BDF1 mice, survival T/C
Assay: NCI In Vivo Anticancer Drug Screen. Data for tumor model L1210 Leukemia (intraperitoneal) in B6D2F1 (BDF1) mice
Conditions: endpoint: mean survival time, higher = longer survival
Summary of the method: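 Transplanted-tumor mice were given test agent; controls received vehicle only. Survival readings from the two groups were divided (treated over control).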

[1] = dose: 50.0 mg/kg/injection, schedule: Q01DX001 (ip), vehicle: carboxymethylcellulose (CMC)
[2] = dose: 100.0 mg/kg/injection, schedule: Q01DX001 (ip), vehicle: carboxymethylcellulose (CMC)
[3] = dose: 200.0 mg/kg/injection, schedule: Q01DX001 (ip), vehicle: carboxymethylcellulose (CMC)
[4] = dose: 400.0 mg/kg/injection, schedule: Q01DX001 (ip), vehicle: carboxymethylcellulose (CMC)
[5] = dose: 50.0 mg/kg/injection, schedule: Q01DX001 (ip), vehicle: saline
[6] = dose: 100.0 mg/kg/injection, schedule: Q01DX001 (ip), vehicle: saline
[7] = dose: 200.0 mg/kg/injection, schedule: Q01DX001 (ip), vehicle: saline
[8] = dose: 400.0 mg/kg/injection, schedule: Q01DX001 (ip), vehicle: saline
[9] = dose: 100.0 mg/kg/injection, schedule: Q01DX009 (ip), vehicle: saline
[10] = dose: 200.0 mg/kg/injection, schedule: Q01DX009 (ip), vehicle: saline
[11] = dose: 100.0 mg/kg/injection, schedule: Q01DX009 (ip), vehicle: Klucel (hydroxypropylcellulose) (HPC)
[12] = dose: 200.0 mg/kg/injection, schedule: Q01DX009 (ip), vehicle: Klucel (hydroxypropylcellulose) (HPC)

`Cc1[nH]c2ccccc2c1/C=C/c1c[nH]c2ccccc12` was tested, and the T/C [1] was 93 % of control, the T/C [2] was 91 % of control and the T/C [3] was 98 % of control. The T/C [4] was 91 % of control.
In the case of `NC(N)=N/N=C/c1ccccc1Cl`, the T/C (dose: 4.0 mg/kg/injection, schedule: Q01DX Z (ip), vehicle: saline) is reported as 97 % of control, the T/C (dose: 8.0 mg/kg/injection, schedule: Q01DX Z (ip), vehicle: saline) is reported as 97 % of control and the T/C (dose: 16.0 mg/kg/injection, schedule: Q01DX Z (ip), vehicle: saline) is reported as 102 % of control.
With `C[Si](C)(C)Cc1ccccc1` the T/C [1] was 93 % of control and the T/C [3] was 95 % of control.
With `COc1ccc(C(=C(CC(=O)O)C(=O)OC(C)(C)C)c2ccc(OC)c(OC)c2)cc1OC` the T/C [2] was 96 % of control, the T/C (dose: 100.0 mg/kg/injection, schedule: Q01DX009 (ip), vehicle: carboxymethylcellulose (CMC)) was 91 % of control and the T/C [3] was 97 % of control. The T/C (dose: 200.0 mg/kg/injection, schedule: Q01DX009 (ip), vehicle: carboxymethylcellulose (CMC)) was 95 % of control, the T/C [4] was 94 % of control and the T/C (dose: 400.0 mg/kg/injection, schedule: Q01DX009 (ip), vehicle: carboxymethylcellulose (CMC)) was 91 % of control. For the same compound, the T/C (dose: 600.0 mg/kg/injection, schedule: Q01DX009 (ip), vehicle: carboxymethylcellulose (CMC)) was 91 % of control.
In the case of `NC(=O)N(Cc1ccccc1)N=O`, the T/C (dose: 6.25 mg/kg/injection, schedule: Q01DX Z (ip), vehicle: carboxymethylcellulose (CMC)) is reported as 101 % of control, the T/C (dose: 12.5 mg/kg/injection, schedule: Q01DX Z (ip), vehicle: carboxymethylcellulose (CMC)) is reported as 116 % of control and the T/C (dose: 25.0 mg/kg/injection, schedule: Q01DX Z (ip), vehicle: carboxymethylcellulose (CMC)) is reported as 104 % of control. For the same compound, the T/C (dose: 50.0 mg/kg/injection, schedule: Q01DX Z (ip), vehicle: carboxymethylcellulose (CMC)) was 110 % of control and the T/C (dose: 100.0 mg/kg/injection, schedule: Q01DX Z (ip), vehicle: carboxymethylcellulose (CMC)) was 116 % of control.
`O=C(C/C(=N/O)c1ccccc1)c1ccccc1` was tested, and the T/C [5] was 98 % of control, the T/C [6] was 102 % of control and the T/C [7] was 96 % of control. For the same compound, the T/C [8] was 90 % of control.
In the case of `CC1(C)N=C(N)N=C(N)N1c1cccc(OCCCOc2cccc(NC(=O)CBr)c2)c1`, the T/C (dose: 5.0 mg/kg/injection, schedule: Q01DX001 (ip), vehicle: saline) is reported as 95 % of control, the T/C (dose: 10.0 mg/kg/injection, schedule: Q01DX001 (ip), vehicle: saline) is reported as 94 % of control and the T/C (dose: 20.0 mg/kg/injection, schedule: Q01DX001 (ip), vehicle: saline) is reported as 101 % of control. For the same compound, the T/C (dose: 40.0 mg/kg/injection, schedule: Q01DX001 (ip), vehicle: saline) was 103 % of control.
In the case of `OC1(c2ccc(Cl)cc2)CCN(C2CC2c2ccccc2)CC1` (stereo unspecified), the T/C (dose: 100.0 mg/kg/injection, schedule: Q01DX001 (ip), vehicle: Klucel (hydroxypropylcellulose) (HPC)) is reported as 98 % of control, the T/C (dose: 200.0 mg/kg/injection, schedule: Q01DX001 (ip), vehicle: Klucel (hydroxypropylcellulose) (HPC)) is reported as 97 % of control and the T/C (dose: 400.0 mg/kg/injection, schedule: Q01DX001 (ip), vehicle: Klucel (hydroxypropylcellulose) (HPC)) is reported as 98 % of control.
For `C[Se]c1nc2c(=O)[nH]cnc2n1C1OC(CO)C(O)C1O` (stereo unspecified), the T/C (dose: 100.0 mg/kg/injection, schedule: Q01DX005 (ip), vehicle: saline) was 103 % of control and the T/C (dose: 200.0 mg/kg/injection, schedule: Q01DX005 (ip), vehicle: saline) was 111 % of control.
For `CCC[As](=O)(O)CC`, the T/C [9] was 103 % of control and the T/C [10] was 105 % of control.
`Nn1nnc2ccccc21` was tested, and the T/C [6] was 95 % of control, the T/C [7] was 97 % of control and the T/C [8] was 97 % of control.
With `CC(C)(C)C1COP(=O)(OCc2ccccc2)OC1` (stereo unspecified) the T/C (dose: 100.0 mg/kg/injection, schedule: Q04DX003 (ip), vehicle: other) was 92 % of control and the T/C (dose: 200.0 mg/kg/injection, schedule: Q04DX003 (ip), vehicle: other) was 91 % of control.
For `O=C(c1ccccc1)c1cccc(Cl)c1`, the T/C (dose: 50.0 mg/kg/injection, schedule: Q01DX009 (ip), vehicle: Klucel (hydroxypropylcellulose) (HPC)) was 105 % of control, the T/C [6] was 98 % of control and the T/C [11] was 101 % of control. For the same compound, the T/C [7] was 96 % of control, the T/C [12] was 100 % of control and the T/C [8] was 93 % of control.
In the case of `c1ccc2cc3c(cc2c1)Nc1cc2ccccc2cc1N3`, the T/C (dose: 100.0 mg/kg/injection, schedule: Q01DX009 (ip), vehicle: saline with Tween-80) is reported as 93 % of control, the T/C (dose: 100.0 mg/kg/injection, schedule: Q04DX003 (ip), vehicle: saline with Tween-80) is reported as 97 % of control and the T/C (dose: 200.0 mg/kg/injection, schedule: Q01DX009 (ip), vehicle: saline with Tween-80) is reported as 93 % of control. The T/C (dose: 200.0 mg/kg/injection, schedule: Q04DX003 (ip), vehicle: saline with Tween-80) was 101 % of control, the T/C (dose: 400.0 mg/kg/injection, schedule: Q01DX009 (ip), vehicle: saline with Tween-80) was 88 % of control and the T/C (dose: 400.0 mg/kg/injection, schedule: Q04DX003 (ip), vehicle: saline with Tween-80) was 103 % of control.
In the case of `COC(=O)c1ccc(Cl)cc1[N+](=O)[O-]`, the T/C [9] is reported as 101 % of control, the T/C [10] is reported as 100 % of control and the T/C (dose: 400.0 mg/kg/injection, schedule: Q01DX009 (ip), vehicle: saline) is reported as 100 % of control.
For `Cc1c(Cl)cccc1NC(=O)Oc1ccc(F)cc1Cl`, the T/C [11] was 94 % of control and the T/C [12] was 95 % of control.
For `Nc1nc(N)c2nc(CBr)cnc2n1`, the T/C (dose: 6.25 mg/kg/injection, schedule: Q01DX009 (ip), vehicle: saline) was 105 % of control, the T/C (dose: 12.5 mg/kg/injection, schedule: Q01DX009 (ip), vehicle: saline) was 88 % of control and the T/C (dose: 25.0 mg/kg/injection, schedule: Q01DX009 (ip), vehicle: saline) was 115 % of control.
With `Cc1cccc(Cl)c1NC(=O)c1cccc(C(=O)Nc2c(C)cccc2Cl)c1` the T/C [11] was 96 % of control, the T/C [12] was 94 % of control and the T/C (dose: 400.0 mg/kg/injection, schedule: Q01DX009 (ip), vehicle: Klucel (hydroxypropylcellulose) (HPC)) was 91 % of control.
In the case of `COc1cccc(NC(=S)C(C#N)C(=O)Nc2cccc(C(F)(F)F)c2)c1` (stereo unspecified), the T/C (dose: 25.0 mg/kg/injection, schedule: Q04DX002 (ip), vehicle: gum acacia) is reported as 106 % of control, the T/C (dose: 50.0 mg/kg/injection, schedule: Q04DX002 (ip), vehicle: gum acacia) is reported as 109 % of control and the T/C (dose: 100.0 mg/kg/injection, schedule: Q04DX002 (ip), vehicle: gum acacia) is reported as 98 % of control and 88 % of control.
`CN(C)CCSS(=O)(=O)O` was tested, and the T/C [6] was 93 % of control, the T/C [7] was 96 % of control and the T/C [8] was 102 % of control.
In the case of `O=[N+]([O-])C1CC(Cl)CCC1SSC1CCC(Cl)CC1[N+](=O)[O-]` (stereo unspecified), the T/C (dose: 100.0 mg/kg/injection, schedule: Q04DX002 (ip), vehicle: saline with Tween-80) is reported as 95 % of control, the T/C (dose: 200.0 mg/kg/injection, schedule: Q04DX002 (ip), vehicle: saline with Tween-80) is reported as 98 % of control and the T/C (dose: 400.0 mg/kg/injection, schedule: Q04DX002 (ip), vehicle: saline with Tween-80) is reported as 92 % of control.
For `CC[n+]1cccc2cc(NC(=O)c3ccc(NC(=O)c4ccc(C(=O)Nc5ccc6c(ccc[n+]6CC)c5)cc4)cc3)ccc21`, the T/C (dose: 0.5 mg/kg/injection, schedule: Q01DX Z (ip), vehicle: carboxymethylcellulose (CMC)) was 94 % of control, the T/C (dose: 1.0 mg/kg/injection, schedule: Q01DX Z (ip), vehicle: carboxymethylcellulose (CMC)) was 96 % of control and the T/C (dose: 2.5 mg/kg/injection, schedule: Q01DX Z (ip), vehicle: carboxymethylcellulose (CMC)) was 120 % of control. For the same compound, the T/C (dose: 5.0 mg/kg/injection, schedule: Q01DX Z (ip), vehicle: carboxymethylcellulose (CMC)) was 156 % of control, the T/C (dose: 8.9 mg/kg/injection, schedule: Q01DX Z (ip), vehicle: carboxymethylcellulose (CMC)) was 154 % of control and the T/C (dose: 13.3 mg/kg/injection, schedule: Q01DX Z (ip), vehicle: carboxymethylcellulose (CMC)) was 164 % of control. For the same compound, the T/C (dose: 20.0 mg/kg/injection, schedule: Q01DX Z (ip), vehicle: carboxymethylcellulose (CMC)) was 164 % of control and the T/C (dose: 30.0 mg/kg/injection, schedule: Q01DX Z (ip), vehicle: carboxymethylcellulose (CMC)) was 174 % of control.
In the case of `c1ccc(CNNC2=NCCN2)cc1`, the T/C (dose: 15.0 mg/kg/injection, schedule: Q01DX009 (ip), vehicle: saline) is reported as 103 % of control, the T/C (dose: 31.0 mg/kg/injection, schedule: Q01DX009 (ip), vehicle: saline) is reported as 102 % of control and the T/C [5] is reported as 103 % of control. The T/C (dose: 62.5 mg/kg/injection, schedule: Q01DX009 (ip), vehicle: saline) was 92 % of control and the T/C [6] was 114 % of control.
